Experimental data taken from patent US6358885B1, “Substituted phenylheterocyclic herbicides” (Mississippi State University, priority 1992, dated 2002).

Columns and labels:
cocklebur = experiment: Test B preemergence/postemergence greenhouse plant response rating 0 to 10; type: in vivo, Xanthium pensylvanicum; settings: for Plant response rating, Cocklebur: 0 to 10 scale
Summary of the method: (§1)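 Postemergence treatment of plants two to eighteen cm tall ran alongside preemergence treatment of planted seed, each using compound in a non-phytotoxic solvent.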

rice [1] = experiment: as above; type: in vivo, Oryza sativa; settings: 0 to 10 scale
Summary of the method: as §1

soybean = experiment: as above; type: in vivo, Glycine max; settings: 0 to 10 scale
Summary of the method: as §1

wild buckwheat = experiment: as above; type: in vivo, Polygonum convolvulus; settings: 0 to 10 scale
Summary of the method: as §1

purple nutsedge = experiment: as above; type: in vivo, Cyperus rotundus; settings: 0 to 10 scale
Summary of the method: as §1

bedstraw = experiment: Test C preemergence/postemergence greenhouse plant response rating 0 to 100; type: in vivo, Galium aparine; settings: POSTEMERGENCE; for Plant response rating, Bedstraw: 0 to 100 scale
Summary of the method: (§2)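 Compounds in non-phytotoxic solvent applied preemergence to sandy loam one day after planting, postemergence at the 1–4 leaf stage, or to ~2.5 cm floodwater over silt loam.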

blackgrass = experiment: as above; type: in vivo, Alopecurus myosuroides; settings: POSTEMERGENCE; for Plant response rating, Blackgrass: 0 to 100 scale
Summary of the method: as §2

chickweed = experiment: as above; type: in vivo, Stellaria media; settings: POSTEMERGENCE; for Plant response rating, Chickweed: 0 to 100 scale
Summary of the method: as §2

corn = experiment: as above; type: in vivo, Zea mays; settings: POSTEMERGENCE; for Plant response rating, Corn: 0 to 100 scale
Summary of the method: as §2

cotton = experiment: as above; type: in vivo, Gossypium hirsutum; settings: POSTEMERGENCE; for Plant response rating, Cotton: 0 to 100 scale
Summary of the method: as §2

giant foxtail = experiment: as above; type: in vivo, Setaria faberii; settings: POSTEMERGENCE; for Plant response rating, Giant foxtail: 0 to 100 scale
Summary of the method: as §2

pigweed = experiment: as above; type: in vivo, Amaranthusretroflexus; settings: POSTEMERGENCE; for Plant response rating Pigweed: 0 to 100 scale
Summary of the method: as §2

sugar beet = experiment: as above; type: in vivo, Beta vulgaris; settings: POSTEMERGENCE; for Plant response rating, Sugar beet: 0 to 100 scale
Summary of the method: as §2

velvetleaf = experiment: as above; type: in vivo, Abutilon theophrasti; settings: POSTEMERGENCE; for Plant response rating, Velvetleaf: 0 to 100 scale
Summary of the method: as §2

rice [2] = experiment: Test C flood test plant response rating 0 to 100; type: in vivo, Oryza sativa; settings: for Plant response rating Rice Japonica: flood test species listed under POSTEMERGENCE, 0 to 100 scale
Source text: (§3) The compounds evaluated in this test were formulated in a non-phytoxic solvent and applied to the soil surface before plant seedlings emerged (preemergence application), to water that covered the soil surface (flood application), and to plants that were in the one-to-four leaf stage (postemergence application). A sandy loam soil was used for the preemergence and postemergence tests, while a silt loam soil was used in the flood test. Water depth was approximately 2.5 cm for the flood test and was maintained at this level for the duration of the test. Plant species in the preemergence and postemergence tests consisted of barley (Hordeum vulgare), bedstraw (Galium aparine), blackgrass (Alopecurus myosuroides), chickweed (Stellaria media), corn (Zea mays), cotton (Gossypium hirsutum), crabgrass (Digitaria sanguinalis), downy brome (Bromus tectorum), giant foxtail (Setaria faberii), lambsquarters (Chenopodium album), morningglory (Ipomoea hederacea), pigweed ([…]), rape (Brassica napus), ryegrass (Lolium multiflorum), sorghum (Sorghum bicolor), soybean (Glycine max), speedwell (Veronica persica), sugar beet (Beta vulgaris), velvetleaf (Abutilon theophrasti), wheat (Triticum aestivum), wild buckwheat (Polygonum convolvulus), and wild oat (Avena fatua). All plant species were planted one day before application of the compound for the preemergence portion-of this test. Plantings of these species were adjusted to produce plants of appropriate size for the post-emergence portion of the test. […] All plant species were grown using normal greenhouse practices. Visual evaluations of injury expressed on treated plants, when compared to untreated controls, were recorded approximately fourteen to twenty one days after application of the test compound. […] A dash (-) response means no test result.

umbrella sedge = experiment: Test C flood test plant response rating 0 to 100; type: in vivo, Cyperus difformis; settings: for Plant response rating Umbrella sedge: flood test species listed under POSTEMERGENCE, 0 to 100 scale
Source text: as §3

duck salad = experiment: Test C flood test plant response rating 0 to 100; type: in vivo, Heteranthera limosa; settings: for Plant response rating Duck salad: flood test species listed under POSTEMERGENCE, 0 to 100 scale
Source text: as §3

[3] = POSTEMERGENCE section, flood test, Rate 4 g/ha
[4] = Rate 16 g/ha, under POSTEMERGENCE head (flood test species)

CC(C)COc1cc(-c2nn3c(c2Cl)CCCC3)c(F)cc1Cl [Compound 30]
60: Plant response rating, Blackgrass (blackgrass; 62 g/ha) | Plant response rating (0 to 100), Velvetleaf (velvetleaf; Rate 16 g/ha) | Plant response rating Rice Japonica (rice [2]; 250 g/ha) | Plant response rating Duck salad (duck salad; 250 g/ha)
70: Plant response rating (0 to 100), Bedstraw (bedstraw; Rate 16 g/ha) | Plant response rating, Chickweed (chickweed; 250 g/ha)
4: Plant response rating, Cocklebur (cocklebur; Rate 200 g/ha, PREEMERGENCE)
25: Plant response rating (0 to 100), Umbrella sedge (umbrella sedge; [4])
50: Plant response rating (0 to 100), Bedstraw (bedstraw; Rate 4 g/ha) | Plant response rating, Chickweed (chickweed; 62 g/ha) | Plant response rating, Giant foxtail (giant foxtail; 62 g/ha) | Plant response rating Rice Japonica (rice [2]; 62 g/ha)
100: Plant response rating, Bedstraw (bedstraw; 62 g/ha) | Plant response rating, Bedstraw (bedstraw; 250 g/ha) | Plant response rating, Cotton (cotton; 62 g/ha) | Plant response rating, Cotton (cotton; 250 g/ha) | Plant response rating (0 to 100), Cotton (cotton; Rate 4 g/ha) | Plant response rating (0 to 100), Cotton (cotton; Rate 16 g/ha) | Plant response rating Pigweed (pigweed; 62 g/ha) | Plant response rating Pigweed (pigweed; 250 g/ha) | Plant response rating (0 to 100), Pigweed (pigweed; Rate 4 g/ha) | Plant response rating (0 to 100), Pigweed (pigweed; Rate 16 g/ha) | Plant response rating, Sugar beet (sugar beet; 62 g/ha) | Plant response rating, Sugar beet (sugar beet; 250 g/ha) | Plant response rating (0 to 100), Sugar beet (sugar beet; Rate 16 g/ha) | Plant response rating, Velvetleaf (velvetleaf; 62 g/ha) | Plant response rating, Velvetleaf (velvetleaf; 250 g/ha)
5: Plant response rating, Rice (rice [1]; POSTEMERGENCE, Rate 50 g/ha) | Plant response rating, Rice (rice [1]; Rate 200 g/ha, POSTEMERGENCE) | Plant response rating, Nutsedge (purple nutsedge; Rate 200 g/ha, POSTEMERGENCE)
0: Plant response rating, Cocklebur (cocklebur; PREEMERGENCE, Rate 50 g/ha) | Plant response rating, Rice (rice [1]; PREEMERGENCE, Rate 50 g/ha) | Plant response rating, Soybean (soybean; PREEMERGENCE, Rate 50 g/ha) | Plant response rating, Wild buckwheat (wild buckwheat; PREEMERGENCE, Rate 50 g/ha) | Plant response rating, Nutsedge (purple nutsedge; PREEMERGENCE, Rate 50 g/ha) | Plant response rating, Nutsedge (purple nutsedge; Rate 200 g/ha, PREEMERGENCE) | Plant response rating (0 to 100), Giant foxtail (giant foxtail; Rate 4 g/ha) | Plant response rating (0 to 100), Velvetleaf (velvetleaf; Rate 4 g/ha) | Plant response rating (0 to 100), Duck salad (duck salad; [3])
80: Plant response rating, Blackgrass (blackgrass; 250 g/ha) | Plant response rating, Giant foxtail (giant foxtail; 250 g/ha) | Plant response rating (0 to 100), Sugar beet (sugar beet; Rate 4 g/ha) | Plant response rating Umbrella sedge (umbrella sedge; 250 g/ha)
40: Plant response rating, Corn (corn; 250 g/ha) | Plant response rating (0 to 100), Rice Japonica (rice [2]; [4]) | Plant response rating Duck salad (duck salad; 62 g/ha)
35: Plant response rating (0 to 100), Rice Japonica (rice [2]; [3])
30: Plant response rating, Corn (corn; 62 g/ha) | Plant response rating Umbrella sedge (umbrella sedge; 62 g/ha) | Plant response rating (0 to 100), Duck salad (duck salad; [4])
7: Plant response rating (0 to 10 scale), Cocklebur (cocklebur; POSTEMERGENCE, Rate 50 g/ha) | Plant response rating, Soybean (soybean; POSTEMERGENCE, Rate 50 g/ha)
10: Plant response rating, Cocklebur (cocklebur; POSTEMERGENCE, Rate 200 g/ha) | Plant response rating, Wild buckwheat (wild buckwheat; POSTEMERGENCE, Rate 50 g/ha) | Plant response rating, Wild buckwheat (wild buckwheat; Rate 200 g/ha, POSTEMERGENCE) | Plant response rating (0 to 100), Blackgrass (blackgrass; Rate 4 g/ha) | Plant response rating (0 to 100), Chickweed (chickweed; Rate 4 g/ha) | Plant response rating (0 to 100), Umbrella sedge (umbrella sedge; [3])
6: Plant response rating, Wild buckwheat (wild buckwheat; Rate 200 g/ha, PREEMERGENCE)
20: Plant response rating (0 to 100), Blackgrass (blackgrass; Rate 16 g/ha) | Plant response rating (0 to 100), Chickweed (chickweed; Rate 16 g/ha) | Plant response rating (0 to 100), Corn (corn; Rate 4 g/ha) | Plant response rating (0 to 100), Corn (corn; Rate 16 g/ha) | Plant response rating (0 to 100), Giant foxtail (giant foxtail; Rate 16 g/ha)
2: Plant response rating, Rice (rice [1]; Rate 200 g/ha, PREEMERGENCE) | Plant response rating, Soybean (soybean; Rate 200 g/ha, POSTEMERGENCE) | Plant response rating, Soybean (soybean; Rate 200 g/ha, PREEMERGENCE) | Plant response rating, Nutsedge (purple nutsedge; POSTEMERGENCE, Rate 50 g/ha)
